Data as given in PubChem BioAssay AID330 (DTP/NCI, 2004).
Inconclusive results and toxic doses are left out.

Tested on: P388 leukemia ip, CD2F1 mice, survival T/C
Test: NCI In Vivo Anticancer Drug Screen. Data for tumor model P388 Leukemia (intraperitoneal) in CD2F1 (CDF1) mice
Conditions: endpoint: median survival time, higher = longer survival
Summary of the method: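 Mice carrying the transplanted tumor received test compound or vehicle. Survival was recorded in each group, and the value is the treated-group measurement divided by that of the vehicle-treated control group.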

[1] = dose: 50.0 mg/kg/injection, schedule: Q01DX009 (ip), vehicle: saline
[2] = dose: 50.0 mg/kg/injection, schedule: Q01DX005 (ip), vehicle: Klucel (hydroxypropylcellulose) (HPC)
[3] = dose: 100.0 mg/kg/injection, schedule: Q01DX005 (ip), vehicle: Klucel (hydroxypropylcellulose) (HPC)
[4] = dose: 50.0 mg/kg/injection, schedule: Q01DX005 (ip), vehicle: saline
[5] = dose: 100.0 mg/kg/injection, schedule: Q01DX005 (ip), vehicle: saline
[6] = dose: 200.0 mg/kg/injection, schedule: Q01DX005 (ip), vehicle: saline
[7] = dose: 50.0 mg/kg/injection, schedule: Q01DX005 (ip), vehicle: saline with Tween-80
[8] = dose: 100.0 mg/kg/injection, schedule: Q01DX005 (ip), vehicle: saline with Tween-80
[9] = dose: 200.0 mg/kg/injection, schedule: Q01DX005 (ip), vehicle: saline with Tween-80

In the case of Fc1ccc(CN2COc3c(ccc4cccnc34)C2)cc1, the T/C (dose: 100.0 mg/kg/injection, schedule: Q04DX003 (ip), vehicle: Klucel (hydroxypropylcellulose) (HPC)) is reported as 96 % of control, the T/C (dose: 200.0 mg/kg/injection, schedule: Q04DX003 (ip), vehicle: Klucel (hydroxypropylcellulose) (HPC)) is reported as 97 % of control and the T/C (dose: 400.0 mg/kg/injection, schedule: Q04DX003 (ip), vehicle: Klucel (hydroxypropylcellulose) (HPC)) is reported as 94 % of control.
With O=C1CCCCC1C(O)c1c(Cl)cccc1Cl (stereo not given) the T/C (dose: 50.0 mg/kg/injection, schedule: Q01DX009 (ip), vehicle: saline with Tween-80) was 99 % of control, the T/C (dose: 100.0 mg/kg/injection, schedule: Q01DX009 (ip), vehicle: saline with Tween-80) was 99 % of control and the T/C (dose: 200.0 mg/kg/injection, schedule: Q01DX009 (ip), vehicle: saline with Tween-80) was 100 % of control.
In the case of COC(=O)C1=Cc2c(n3ncnc3n(-c3ccccc3)c2=O)N(S(=O)(=O)c2ccc(C)cc2)CC1, the T/C (dose: 60.0 mg/kg/injection, schedule: Q01DX005 (ip), vehicle: saline with Tween-80) is reported as 93 % of control, the T/C (dose: 120.0 mg/kg/injection, schedule: Q01DX005 (ip), vehicle: saline with Tween-80) is reported as 95 % of control and the T/C (dose: 240.0 mg/kg/injection, schedule: Q01DX005 (ip), vehicle: saline with Tween-80) is reported as 97 % of control.
With COCCCN1C(=O)/C(=C/c2ccccn2)SC1=S the T/C [1] was 97 % of control, the T/C (dose: 100.0 mg/kg/injection, schedule: Q01DX009 (ip), vehicle: saline) was 96 % of control and the T/C (dose: 200.0 mg/kg/injection, schedule: Q01DX009 (ip), vehicle: saline) was 96 % of control.
OC1(Cc2ccc(F)cc2)CCCCCC1 was tested, and the T/C [2] was 102 % of control, the T/C [3] was 105 % of control and the T/C (dose: 200.0 mg/kg/injection, schedule: Q01DX005 (ip), vehicle: Klucel (hydroxypropylcellulose) (HPC)) was 103 % of control.
In the case of CC(=O)OCC12CCC(C)=CC1OC1C(N3CCOCC3)C(O)C2(C)C12CO2 (stereo not given), the T/C (dose: 0.62 mg/kg/injection, schedule: Q04DX002 (ip), vehicle: water) is reported as 123 % of control, the T/C (dose: 1.25 mg/kg/injection, schedule: Q04DX002 (ip), vehicle: water) is reported as 123 % of control and the T/C (dose: 2.5 mg/kg/injection, schedule: Q04DX002 (ip), vehicle: water) is reported as 123 % of control.
In the case of Oc1ccc(Nc2ccc3[nH]c4ccccc4c3c2)cc1, the T/C (dose: 25.0 mg/kg/injection, schedule: Q01DX005 (ip), vehicle: Klucel (hydroxypropylcellulose) (HPC)) is reported as 101 % of control, the T/C [2] is reported as 106 % of control and the T/C [3] is reported as 104 % of control.
CCC1(c2ccccc2)CCC(C#N)C1=N (stereo not given) was tested, and the T/C (dose: 100.0 mg/kg/injection, schedule: Q01DX001 (ip), vehicle: Klucel (hydroxypropylcellulose) (HPC)) was 102 % of control, the T/C (dose: 200.0 mg/kg/injection, schedule: Q01DX001 (ip), vehicle: Klucel (hydroxypropylcellulose) (HPC)) was 100 % of control and the T/C (dose: 400.0 mg/kg/injection, schedule: Q01DX001 (ip), vehicle: Klucel (hydroxypropylcellulose) (HPC)) was 98 % of control.
For Cn1c2c(c3ccccc3c1=O)C(=O)c1cccnc1-2, the T/C [4] was 102 % of control, the T/C [5] was 97 % of control and the T/C [6] was 105 % of control.
CCC(/C=C/c1ccccc1)=N\Nc1ccc(Cl)c(Cl)c1 was tested, and the T/C [7] was 104 % of control, the T/C [8] was 96 % of control and the T/C [9] was 91 % of control.
With CCCN(CCC)CC(C)(C)C(O)c1ccc(OC)c2ccccc12 (stereo not given) the T/C (dose: 25.0 mg/kg/injection, schedule: Q01DX005 (ip), vehicle: saline with Tween-80) was 110 % of control and the T/C [7] was 108 % of control.
With COc1ccccc1Nc1nc(-c2ccc(O)c(O)c2)cs1 the T/C [7] was 97 % of control, the T/C [8] was 89 % of control and the T/C [9] was 103 % of control.
In the case of CC[N+](CC)(CC)CC(=O)c1ccc(Br)cc1, the T/C (dose: 12.5 mg/kg/injection, schedule: Q01DX009 (ip), vehicle: saline) is reported as 100 % of control, the T/C (dose: 25.0 mg/kg/injection, schedule: Q01DX009 (ip), vehicle: saline) is reported as 104 % of control and the T/C [1] is reported as 95 % of control.
With CC(C)(C)OC(=O)NC(CCCCN)C(=O)O (stereo not given) the T/C [4] was 103 % of control, the T/C [5] was 100 % of control and the T/C [6] was 100 % of control.
COCCO[Si](OCCOC)(OCCOC)OCCOC was tested, and the T/C (dose: 50.0 mg/kg/injection, schedule: Q01DX009 (ip), vehicle: Klucel (hydroxypropylcellulose) (HPC)) was 99 % of control and the T/C (dose: 100.0 mg/kg/injection, schedule: Q01DX009 (ip), vehicle: Klucel (hydroxypropylcellulose) (HPC)) was 87 % of control.
In the case of C1CCC2C[N-]CCC2C1.C1CCC2C[N-]CCC2C1.C1CCC2C[N-]CCC2C1.C1CCC2C[N-]CCC2C1.[Cl][Rh][Cl] (stereo not given), the T/C (dose: 0.06 mg/kg/injection, schedule: Q03HX024 (ip), vehicle: saline) is reported as 105 % of control, the T/C (dose: 0.13 mg/kg/injection, schedule: Q03HX008 (ip), vehicle: saline) is reported as 113 % of control and the T/C (dose: 0.13 mg/kg/injection, schedule: Q03HX016 (ip), vehicle: saline) is reported as 105 % of control. For the same compound, the T/C (dose: 0.13 mg/kg/injection, schedule: Q03HX024 (ip), vehicle: saline) was 100 % of control, the T/C (dose: 0.25 mg/kg/injection, schedule: Q01DX009 (ip), vehicle: saline) was 107 % of control and the T/C (dose: 0.25 mg/kg/injection, schedule: Q03HX008 (ip), vehicle: saline) was 118 % of control. The T/C (dose: 0.25 mg/kg/injection, schedule: Q03HX016 (ip), vehicle: saline) was 110 % of control, the T/C (dose: 0.25 mg/kg/injection, schedule: Q03HX024 (ip), vehicle: saline) was 108 % of control and the T/C (dose: 0.5 mg/kg/injection, schedule: Q01DX009 (ip), vehicle: saline) was 110 % of control. The T/C (dose: 0.5 mg/kg/injection, schedule: Q03HX008 (ip), vehicle: saline) was 123 % of control, the T/C (dose: 0.5 mg/kg/injection, schedule: Q03HX016 (ip), vehicle: saline) was 116 % of control and the T/C (dose: 0.5 mg/kg/injection, schedule: Q03HX024 (ip), vehicle: saline) was 117 % of control. For the same compound, the T/C (dose: 0.5 mg/kg/injection, schedule: Q04DX003 (ip), vehicle: saline) was 111 % of control, the T/C (dose: 1.0 mg/kg/injection, schedule: Q01DX001 (ip), vehicle: saline) was 118 % of control and the T/C (dose: 1.0 mg/kg/injection, schedule: Q03HX008 (ip), vehicle: saline) was 121 % of control. For the same compound, the T/C (dose: 1.0 mg/kg/injection, schedule: Q03HX016 (ip), vehicle: saline) was 115 % of control, the T/C (dose: 1.0 mg/kg/injection, schedule: Q04DX003 (ip), vehicle: saline) was 113 % of control and the T/C (dose: 1.0 mg/kg/injection, schedule: Q08DX002 (ip), vehicle: saline) was 114 % of control. The T/C (dose: 1.3 mg/kg/injection, schedule: Q01DX009 (ip), vehicle: water) was 111 % of control, the T/C (dose: 2.0 mg/kg/injection, schedule: Q01DX001 (ip), vehicle: saline) was 119 % of control and the T/C (dose: 2.0 mg/kg/injection, schedule: Q03HX008 (ip), vehicle: saline) was 119 % of control. For the same compound, the T/C (dose: 2.0 mg/kg/injection, schedule: Q04DX003 (ip), vehicle: saline) was 115 % of control, the T/C (dose: 2.0 mg/kg/injection, schedule: Q08DX002 (ip), vehicle: saline) was 121 % of control and the T/C (dose: 3.0 mg/kg/injection, schedule: Q01DX009 (ip), vehicle: water) was 111 % of control. The T/C (dose: 3.13 mg/kg/injection, schedule: Q04DX003 (ip), vehicle: saline with Tween-80) was 150 % of control, the T/C (dose: 4.0 mg/kg/injection, schedule: Q01DX001 (ip), vehicle: saline) was 118 % of control and the T/C (dose: 4.0 mg/kg/injection, schedule: Q03HX016 (ip), vehicle: saline) was 110 % of control. For the same compound, the T/C (dose: 4.0 mg/kg/injection, schedule: Q04DX003 (ip), vehicle: saline) was 124 % of control, the T/C (dose: 4.0 mg/kg/injection, schedule: Q08DX002 (ip), vehicle: saline) was 123 % of control and the T/C (dose: 6.25 mg/kg/injection, schedule: Q04DX003 (ip), vehicle: saline with Tween-80) was 150 % of control. For the same compound, the T/C (dose: 8.0 mg/kg/injection, schedule: Q08DX002 (ip), vehicle: saline) was 123 % of control and the T/C (dose: 12.5 mg/kg/injection, schedule: Q04DX003 (ip), vehicle: saline with Tween-80) was 90 % of control.
